Data reported in patent publication US5643871A, “Antitumor antibiotics” (Bristol-Meyers Squibb Company, priority 1993, dated 1997).
Starred links: 1 amine or outer side, 2 acyl side, 3 side chain; linkers in the order of their positions; H or OH if unused. Positions of bridges follow the written chain, without caps; N, C: chain ends. Non-standard residues stand in square brackets, D forms with d. Residues, ends and D or L forms follow the SMILES beside them. Chains are numbered I, II in the order given. ξ: configuration not given here. *: point of attachment. X2 = CC(C)C(=O)OC1CC=NN([*:1])C1C(=O)[*:2]; ξNMeVal(3-OH) = CNC(C(=O)O)C(C)(C)O; X1 = COc1ccc2nc(C(=O)*)cnc2c1; Sar = CNCC(=O)O

What was measured:
P388 murine leukemia = assay: In vivo antitumor activity against P388 leukemia (ip tumor implant / ip drug); details: once daily for five days; for % T/C: >=125 considered significant; for Median Survival Time: CDF1 female mice, ip P388;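 on all read-outs here: dosing started the day after tumor implantation, and %T/C expresses median survival of treated mice relative to the saline-treated control group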
Method: CDF1 female mice were implanted intraperitoneally with a tumor inoculum of 10^6 ascites cells of P388, and treated with various doses of test compounds. The compounds were administered intraperitoneally once daily for five consecutive days starting on the day after tumor implantation. The ratio of median survival time for a treated group and that for the saline-treated control group was determined and expressed as %T/C.

[1] = tested on: Madison 109 (M109) lung carcinoma; assay: Madison 109 lung carcinoma, ip/ip model; type: in vivo, mice; details: 0.05 mg/kg/dose ip on days 2, 6 and 10; ip tumor implantation
P388 leukemia = assay: iv/iv P388 leukemia protocol; type: in vivo, mice; details: 0.010 mg/kg/dose iv, once daily for five days; leukemic cells implanted iv
[2] = tested on: Madison 109 (M109) lung carcinoma; details: sc tumor implantation, intravenous drug administration on days 2, 6 and 10
Method: 299- (1981). Briefly, CDF1 female mice were implanted intraperitoneally (ip) with 0.5 ml or subcutaneously (sc) with 0.1 ml of a 2% brei (w/v) of M109 lung carcinoma. The test compound was administered intraperitoneally (in ip tumor implant groups) or intravenously (in sc tumor implant groups) at various dosage levels to groups of mice on days 2, 6 and 10 after tumor implantation. The median survival time and %T/C values were determined as described above.

Compound | Body Weight Change on Day 4 (P388 murine leukemia; dose 0.02 mg/kg/day ip) | % T/C (P388 murine leukemia; dose 0.02 mg/kg/day ip) | Median Survival Time (P388 murine leukemia; dose 0.02 mg/kg/day ip) | Body Weight Change on Day 4 (P388 murine leukemia; dose 0.05 mg/kg/day ip) | % T/C (P388 murine leukemia; dose 0.05 mg/kg/day ip) | Median Survival Time (P388 murine leukemia; dose 0.05 mg/kg/day ip) | Body Weight Change on Day 4 (P388 murine leukemia; dose 0.2 mg/kg/day ip) | % T/C (P388 murine leukemia; dose 0.2 mg/kg/day ip) | Median Survival Time (P388 murine leukemia; dose 0.2 mg/kg/day ip) | Body Weight Change on Day 4 (P388 murine leukemia; dose 0.7 mg/kg/day ip) | % T/C (P388 murine leukemia; dose 0.7 mg/kg/day ip) | Median Survival Time (P388 murine leukemia; dose 0.7 mg/kg/day ip) | % T/C (P388 murine leukemia; dose 2.0 mg/kg/day ip) | Median Survival Time (P388 murine leukemia; dose 2.0 mg/kg/day ip) | other results
CCC(=O)OC1CC=NN2C(=O)C(NC(=O)c3cnc4cc(OC)ccc4n3)COC(=O)C(C(C)(C)O)N(C)C(=O)CN(C)C(=O)CNC(=O)C3C(OC(=O)CC)CC=NN3C(=O)C(NC(=O)c3cnc4cc(OC)ccc4n3)COC(=O)C(C(C)(C)O)N(C)C(=O)CN(C)C(=O)CNC(=O)C12 (stereo not drawn) [BMS-181060] | – | – | – | – | – | – | – | – | – | – | – | – | – | – | Body Weight Change on Day 4 (P388 murine leukemia; dose 0.003 mg/kg/day ip): 1.0; % T/C (P388 murine leukemia; dose 0.003 mg/kg/day ip): 105%; Median Survival Time (P388 murine leukemia; dose 0.003 mg/kg/day ip): 11.5; Body Weight Change on Day 4 (P388 murine leukemia; dose 0.01 mg/kg/day ip): 0.1; % T/C (P388 murine leukemia; dose 0.01 mg/kg/day ip): 127%; Median Survival Time (P388 murine leukemia; dose 0.01 mg/kg/day ip): 14.0; Body Weight Change on Day 4 (P388 murine leukemia; dose 0.03 mg/kg/day ip): 0.0; % T/C (P388 murine leukemia; dose 0.03 mg/kg/day ip): 127%; Median Survival Time (P388 murine leukemia; dose 0.03 mg/kg/day ip): 14.0; Body Weight Change on Day 4 (P388 murine leukemia; dose 0.09 mg/kg/day ip): -0.9; % T/C (P388 murine leukemia; dose 0.09 mg/kg/day ip): 91%; Median Survival Time (P388 murine leukemia; dose 0.09 mg/kg/day ip): 10.0; Body Weight Change on Day 4 (P388 murine leukemia; dose 0.27 mg/kg/day ip): 0.7; % T/C (P388 murine leukemia; dose 0.27 mg/kg/day ip): Tox; Median Survival Time (P388 murine leukemia; dose 0.27 mg/kg/day ip): Tox; % T/C (P388 murine leukemia; dose 0.81 mg/kg/day ip): Tox; Median Survival Time (P388 murine leukemia; dose 0.81 mg/kg/day ip): Tox
COc1ccc2nc(C(=O)NC3COC(=O)C(C(C)(C)O)N(C)C(=O)CN(C)C(=O)CNC(=O)C4C(OC(=O)C(C)C)CC=NN4C(=O)C(NC(=O)c4cnc5cc(OC)ccc5n4)COC(=O)C(C(C)(C)O)N(C)C(=O)CN(C)C(=O)CNC(=O)C4C(OC(=O)C(C)C)CC=NN4C3=O)cnc2c1 (stereo not drawn) [BMY-45012] (I: X1-S[X2]G[Sar][ξNMeVal(3-OH)] / II: X1-S[X2]G[Sar][ξNMeVal(3-OH)]; ester I:1-II:C, I:C-II:1; configuration not given here) | -0.4 | 115% | 11.5 | 0.3 | 145% | 14.5 | -0.7 | 145% | 14.5 | -0.1 | 95% | 9.5 | – | – | maximum %T/C [1]: 131%; maximum %T/C (P388 leukemia): 113%; antitumor activity (%T/C) [2]: not significantly active
COc1ccc2nc(C(=O)NC3COC(=O)C(C(C)(C)O)N(C)C(=O)CN(C)C(=O)CNC(=O)C4C(OC(=O)C(C)C)CC=NN4C(=O)C(NC(=O)c4cnc5cc(OC)ccc5n4)COC(=O)C(C(C)(C)O)N(C)C(=O)CN(C)C(=O)CNC(=O)C4C(OC(=O)CC(C)C)CC=NN4C3=O)cnc2c1 (stereo not drawn) [BMY-46404] | -0.1 | 130% | 13.0 | 0.2 | 140% | 14.0 | -0.0 | 135% | 13.5 | -0.3 | 165% | 16.5 | 80% | 8.5 | Body Weight Change on Day 4 (P388 murine leukemia; dose 2.0 mg/kg/day ip): -0.7
COc1ccc2nc(C(=O)NC3COC(=O)C(C(C)(C)O)N(C)C(=O)CN(C)C(=O)CNC(=O)C4C(OC(=O)CC(C)C)CC=NN4C(=O)C(NC(=O)c4cnc5cc(OC)ccc5n4)COC(=O)C(C(C)(C)O)N(C)C(=O)CN(C)C(=O)CNC(=O)C4C(OC(=O)CC(C)C)CC=NN4C3=O)cnc2c1 (stereo not drawn) [BMY-46405] | -0.8 | 140% | 14.0 | -0.8 | 175% | 17.5 | -3.4 | Tox | Tox | – | Tox | Tox | Tox | Tox | –
CCC(=O)OC1CC=NN2C(=O)C(NC(=O)c3cnc4cc(OC)ccc4n3)COC(=O)C(C(C)(C)O)N(C)C(=O)CN(C)C(=O)CNC(=O)C3C(OC(C)=O)CC=NN3C(=O)C(NC(=O)c3cnc4cc(OC)ccc4n3)COC(=O)C(C(C)(C)O)N(C)C(=O)CN(C)C(=O)CNC(=O)C12 (stereo not drawn) [BMY-46407] | 1.0 | 120% | 12.0 | -0.0 | 135% | 13.5 | -0.01 | Tox | Tox | – | Tox | Tox | Tox | Tox | –
CCC(=O)OC1CC=NN2C(=O)C(NC(=O)c3cnc4cc(OC)ccc4n3)COC(=O)C(C(C)(C)O)N(C)C(=O)CN(C)C(=O)CNC(=O)C3C(OC(=O)C(C)C)CC=NN3C(=O)C(NC(=O)c3cnc4cc(OC)ccc4n3)COC(=O)C(C(C)(C)O)N(C)C(=O)CN(C)C(=O)CNC(=O)C12 (stereo not drawn) [BMY-46408] | -0.1 | 150% | 15.0 | -0.4 | 155% | 15.5 | 0.2 | 155% | 15.5 | 0.3 | 85% | 8.5 | Tox | Tox | –
COc1ccc2nc(C(=O)NC3COC(=O)C(C(C)(C)O)N(C)C(=O)CN(C)C(=O)CNC(=O)C4C(OC(=O)C(C)C)CC=NN4C(=O)C(NC(=O)c4cnc5cc(OC)ccc5n4)COC(=O)C(C(C)(C)O)N(C)C(=O)CN(C)C(=O)CNC(=O)C4C(OC(C)=O)CC=NN4C3=O)cnc2c1 (stereo not drawn) [BMY-46572] | – | – | – | – | – | – | – | – | – | – | – | – | – | – | Body Weight Change on Day 4 (P388 murine leukemia; dose 0.003 mg/kg/day ip): 0.4; % T/C (P388 murine leukemia; dose 0.003 mg/kg/day ip): 110%; Median Survival Time (P388 murine leukemia; dose 0.003 mg/kg/day ip): 11.0; Body Weight Change on Day 4 (P388 murine leukemia; dose 0.01 mg/kg/day ip): 0.5; % T/C (P388 murine leukemia; dose 0.01 mg/kg/day ip): 125%; Median Survival Time (P388 murine leukemia; dose 0.01 mg/kg/day ip): 12.5; Body Weight Change on Day 4 (P388 murine leukemia; dose 0.03 mg/kg/day ip): -0.0; % T/C (P388 murine leukemia; dose 0.03 mg/kg/day ip): 140%; Median Survival Time (P388 murine leukemia; dose 0.03 mg/kg/day ip): 14.0
